# Source: ChEMBL document CHEMBL5034035, “Discovery of an Oxycyclohexyl Acid Lysophosphatidic Acid Receptor 1 (LPA1) Antagonist BMS-986278 for the Treatment of Pulmonary Fibrotic Diseases” (J Med Chem, 2021)
# pIC50: −log10 of the molar value.
# Assays:
# Bile salt export pump = Bile salt export pump (Homo sapiens, UniProt O95342); assay: Inhibition of BSEP (unknown origin); assay type: ADME
# [1] = target: T1, Solute carrier organic anion transporter family member 1B1 (Homo sapiens, UniProt Q9Y6L6); assay: Inhibition of OATP1B1 (unknown origin); assay type: ADME
# T1 sequence (Q9Y6L6 whole entry): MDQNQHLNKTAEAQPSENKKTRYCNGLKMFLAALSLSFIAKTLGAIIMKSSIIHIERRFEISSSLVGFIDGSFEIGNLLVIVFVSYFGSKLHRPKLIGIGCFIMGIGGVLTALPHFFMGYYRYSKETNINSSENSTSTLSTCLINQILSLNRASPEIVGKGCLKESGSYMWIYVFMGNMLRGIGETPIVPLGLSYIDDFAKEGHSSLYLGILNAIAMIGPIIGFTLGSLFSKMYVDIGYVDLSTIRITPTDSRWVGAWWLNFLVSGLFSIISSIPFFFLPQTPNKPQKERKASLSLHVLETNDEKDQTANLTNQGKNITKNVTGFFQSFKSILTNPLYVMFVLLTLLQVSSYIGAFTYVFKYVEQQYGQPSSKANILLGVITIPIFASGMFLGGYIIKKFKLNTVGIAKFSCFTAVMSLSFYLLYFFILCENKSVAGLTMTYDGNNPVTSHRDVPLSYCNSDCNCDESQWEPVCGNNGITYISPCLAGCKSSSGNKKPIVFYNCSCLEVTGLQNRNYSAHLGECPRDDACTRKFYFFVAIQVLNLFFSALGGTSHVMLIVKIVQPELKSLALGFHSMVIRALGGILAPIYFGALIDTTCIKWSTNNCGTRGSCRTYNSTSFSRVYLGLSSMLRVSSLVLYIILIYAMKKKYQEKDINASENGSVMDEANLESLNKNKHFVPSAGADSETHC
# [2] = Drug concentration in po dosed monkey plasma assessed as concentration of parent compound; assay type: ADME, organism-based, Macaca mulatta; conditions: rhesus monkey, in vivo
# [3] = Protein binding in CD-1 mouse plasma assessed as free fraction at 3 mg/kg, po or 1 mg/kg, iv measured up to 24 hrs by LC-MS/MS analysis; assay type: ADME, organism-based
# [4] = Protein binding in human plasma assessed as free fraction at 3 mg/kg, po or 1 mg/kg, iv measured up to 24 hrs by LC-MS/MS analysis; assay type: ADME, organism-based
# [5] = Protein binding in Sprague-Dawley rat plasma assessed as free fraction at 3 mg/kg, po or 1 mg/kg, iv measured up to 24 hrs by LC-MS/MS analysis; assay type: ADME, organism-based
# Bile salt export pump, sequence (O95342 whole entry): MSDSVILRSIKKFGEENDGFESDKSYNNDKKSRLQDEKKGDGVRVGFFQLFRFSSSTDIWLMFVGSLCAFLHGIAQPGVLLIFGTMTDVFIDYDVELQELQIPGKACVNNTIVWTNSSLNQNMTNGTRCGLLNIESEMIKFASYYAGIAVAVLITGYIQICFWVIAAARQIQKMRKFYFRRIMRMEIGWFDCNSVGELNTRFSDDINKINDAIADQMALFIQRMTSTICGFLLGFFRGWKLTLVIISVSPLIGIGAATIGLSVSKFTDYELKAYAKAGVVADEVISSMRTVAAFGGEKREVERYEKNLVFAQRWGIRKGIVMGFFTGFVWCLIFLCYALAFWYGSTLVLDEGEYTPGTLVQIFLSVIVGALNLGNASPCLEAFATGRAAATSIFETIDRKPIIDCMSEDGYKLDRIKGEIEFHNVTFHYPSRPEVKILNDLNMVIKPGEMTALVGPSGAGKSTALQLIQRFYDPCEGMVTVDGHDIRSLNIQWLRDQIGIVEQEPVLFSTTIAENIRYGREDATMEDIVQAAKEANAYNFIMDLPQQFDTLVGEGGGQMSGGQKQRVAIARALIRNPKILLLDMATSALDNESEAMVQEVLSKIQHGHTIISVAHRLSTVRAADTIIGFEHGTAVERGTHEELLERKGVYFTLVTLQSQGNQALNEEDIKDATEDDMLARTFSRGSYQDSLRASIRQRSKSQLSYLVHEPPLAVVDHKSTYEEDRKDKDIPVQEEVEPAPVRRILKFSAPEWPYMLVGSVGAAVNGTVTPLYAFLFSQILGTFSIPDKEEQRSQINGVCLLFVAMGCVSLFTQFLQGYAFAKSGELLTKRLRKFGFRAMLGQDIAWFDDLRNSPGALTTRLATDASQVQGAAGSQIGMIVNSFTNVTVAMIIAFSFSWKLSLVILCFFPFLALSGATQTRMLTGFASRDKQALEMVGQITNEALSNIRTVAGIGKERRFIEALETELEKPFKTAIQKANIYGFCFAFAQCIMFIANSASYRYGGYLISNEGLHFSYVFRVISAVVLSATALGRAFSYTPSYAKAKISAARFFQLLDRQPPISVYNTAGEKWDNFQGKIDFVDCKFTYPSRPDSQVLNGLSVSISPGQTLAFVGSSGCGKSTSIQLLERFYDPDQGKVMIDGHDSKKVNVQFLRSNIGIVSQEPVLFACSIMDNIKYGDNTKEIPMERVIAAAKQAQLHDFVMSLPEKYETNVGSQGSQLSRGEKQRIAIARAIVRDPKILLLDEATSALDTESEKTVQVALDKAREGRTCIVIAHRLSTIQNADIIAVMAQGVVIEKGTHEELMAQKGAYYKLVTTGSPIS
pIC50 [1],Drug uptake [2] [%],fraction unbound at 24 h [3],fraction unbound at 24 h [4],fraction unbound at 24 h [5],SMILES,pIC50 (Bile salt export pump)
4.45,–,–,–,–,Cc1noc(-c2ccc(O[C@H]3CCC[C@H](C(=O)O)C3)nn2)c1COC(=O)N(C)C1CCCC1 (racemic),< 4.30
–,< 10,–,–,–,CCCNC(=O)OCc1c(-c2ccc(O[C@H]3CCC[C@H](C(=O)O)C3)c(C)n2)nnn1C,–
–,< 10,–,–,–,CCCN(C)C(=O)OCc1c(-c2ccc(O[C@H]3CCC[C@H](C(=O)O[C@@H]4O[C@H](C(=O)O)[C@@H](O)[C@H](O)[C@H]4O)C3)c(C)n2)nnn1C,–
5.04,–,0.083,0.025,0.025,CN(C(=O)OCc1c(-c2ccc(O[C@H]3CCC[C@H](C(=O)O)C3)cn2)nnn1C)C1CCCC1,4.33
